A short description of the series: Physicochemical properties of Compound I (ionization, aqueous solubility).

For one compound, ionization and aqueous solubility results are on record in US9095585B2, “Bioavailable compositions of amorphous piperidinyl compounds” (Bristol-Myers Squibb Company, priority 2011, dated 2015).

Structures are written as SMILES.

Consider `CC(C)[C@@H](NC(=O)NCC(C)(C)O)C(=O)N1CC[C@](O)(c2ccc(Cl)cc2)C(C)(C)C1` [Compound I], for which the ionization result (pH range of 2-11) is listed as “non-ionizable”. In addition, for the setting “room temperature”, the aqueous solubility entry was “low”.
